# Experimental data as given in ChEMBL document CHEMBL5724914, “Linking interpersonal differences in gut microbiota composition and drug biotransformation activity” (2024).
# Legend:
# [1] = (§1) The drug is tested on Z-030 corresponding to mouse gut metagenome with ENA study accession number: PRJEB37062 and ENA sample accession number: ERS12561829 for biotransformation under anaerobic condition. The drug concentrations were measured over 9 timepoints collected between 0 and 24 hours of incubation by liquid-chromatography-coupled mass spectrometry (LC–MS); settings: 2 µM
# [2] = as §1, with “Z-026” for “Z-030”, “to” for “to mouse gut”, “ERS12561825” for “ERS12561829”; settings: 2 µM
# [3] = as §1, with “Z-023” for “Z-030”, “to” for “to mouse gut”, “ERS12561822” for “ERS12561829”; settings: 2 µM
# [4] = as §1, with “Z-021” for “Z-030”, “to” for “to mouse gut”, “ERS12561820” for “ERS12561829”; settings: 2 µM
# [5] = as §1, with “Z-013” for “Z-030”, “rabbit” for “mouse”, “ERS12561813” for “ERS12561829”; settings: 2 µM
# [6] = as §1, with “Z-009” for “Z-030”, “pig” for “mouse”, “ERS12561809” for “ERS12561829”; settings: 2 µM
# [7] = as §1, with “Z-006” for “Z-030”, “ERS12561806” for “ERS12561829”; settings: 2 µM
# [8] = as §1, with “Z-005” for “Z-030”, “to” for “to mouse gut”, “ERS12561805” for “ERS12561829”; settings: 2 µM
# [9] = as §1, with “Z-004” for “Z-030”, “to” for “to mouse gut”, “ERS12561804” for “ERS12561829”; settings: 2 µM
# [10] = as §1, with “Z-002” for “Z-030”, “rabbit” for “mouse”, “ERS12561802” for “ERS12561829”; settings: 2 µM
# [11] = as §1, with “WLS-038” for “Z-030”, “human” for “mouse”, “ERS12561745” for “ERS12561829”; settings: 2 µM
# [12] = as §1, with “WLS-006” for “Z-030”, “human” for “mouse”, “ERS12561741” for “ERS12561829”; settings: 2 µM
# [13] = human gut metagenome, 24 h, 2 µM
# [14] = human gut metagenome, 24 h, 2 µM; remark: listed apart in the source
# [15] = human gut metagenome, 24 h, 2 µM; remark: listed apart in the source
# [16] = human gut metagenome, 24 h, 2 µM; remark: listed apart in the source
# [17] = human gut metagenome, 24 h, 2 µM; remark: listed apart in the source
# [18] = human gut metagenome, 24 h, 2 µM; remark: listed apart in the source
# [19] = human gut metagenome, 24 h, 2 µM; remark: listed apart in the source
# [20] = human gut metagenome, 24 h, 2 µM; remark: listed apart in the source
# Further: call rule not given here.
SMILES,Bacterial Biotransformation [1],Bacterial Biotransformation [2],Bacterial Biotransformation [3],Bacterial Biotransformation [4],Bacterial Biotransformation [5],Bacterial Biotransformation [6],Bacterial Biotransformation [7],Bacterial Biotransformation [8],Bacterial Biotransformation [9],Bacterial Biotransformation [10],Bacterial Biotransformation [11],Bacterial Biotransformation [12],Bacterial Biotransformation [13],Bacterial Biotransformation [14],Bacterial Biotransformation [15],Bacterial Biotransformation [16],Bacterial Biotransformation [17],Bacterial Biotransformation [18],Bacterial Biotransformation [19],Bacterial Biotransformation [20]
CC[C@H](C)C(=O)O[C@H]1CCC=C2C=C[C@H](C)[C@H](CC[C@@H]3C[C@@H](O)CC(=O)O3)[C@H]21 [MEVASTATIN],Compound metabolized,Compound metabolized,Compound metabolized,Compound NOT metabolized,Compound NOT metabolized,Compound NOT metabolized,Compound NOT metabolized,Compound NOT metabolized,Compound NOT metabolized,Compound NOT metabolized,Compound metabolized,Compound metabolized,Compound NOT metabolized,Compound NOT metabolized,Compound metabolized,Compound metabolized,Compound NOT metabolized,Compound metabolized,Compound metabolized,Compound NOT metabolized
C#C[C@]1(OC(C)=O)CC[C@H]2[C@@H]3CCC4=C/C(=N/O)CC[C@@H]4[C@H]3CC[C@@]21CC [NORGESTIMATE],Compound metabolized,Compound NOT metabolized,Compound NOT metabolized,Compound NOT metabolized,Compound NOT metabolized,Compound NOT metabolized,Compound NOT metabolized,Compound NOT metabolized,Compound NOT metabolized,Compound NOT metabolized,Compound metabolized,Compound metabolized,Compound metabolized,Compound metabolized,Compound NOT metabolized,Compound metabolized,Compound NOT metabolized,Compound NOT metabolized,Compound metabolized,Compound metabolized
CN(CCOc1ccc(CC2SC(=O)NC2=O)cc1)c1ccccn1.O=C(O)/C=C\C(=O)O (stereo not given) [ROSIGLITAZONE MALEATE],Compound NOT metabolized,Compound NOT metabolized,Compound NOT metabolized,Compound NOT metabolized,Compound NOT metabolized,Compound NOT metabolized,Compound NOT metabolized,Compound NOT metabolized,Compound NOT metabolized,Compound NOT metabolized,Compound NOT metabolized,Compound metabolized,Compound metabolized,Compound metabolized,Compound metabolized,Compound metabolized,Compound NOT metabolized,Compound NOT metabolized,Compound NOT metabolized,Compound metabolized
CC(C)c1nc(N(C)S(C)(=O)=O)nc(-c2ccc(F)cc2)c1/C=C/[C@@H](O)C[C@@H](O)CC(=O)[O-].CC(C)c1nc(N(C)S(C)(=O)=O)nc(-c2ccc(F)cc2)c1/C=C/[C@@H](O)C[C@@H](O)CC(=O)[O-].[Ca+2] [ROSUVASTATIN CALCIUM],Compound NOT metabolized,Compound NOT metabolized,Compound NOT metabolized,Compound NOT metabolized,Compound NOT metabolized,Compound NOT metabolized,Compound NOT metabolized,Compound NOT metabolized,Compound NOT metabolized,Compound NOT metabolized,Compound NOT metabolized,Compound metabolized,Compound metabolized,Compound metabolized,Compound metabolized,Compound NOT metabolized,Compound NOT metabolized,Compound NOT metabolized,Compound NOT metabolized,Compound metabolized
C=CC[C@@H]1/C=C(\C)C[C@H](C)C[C@H](OC)[C@H]2O[C@@](O)(C(=O)C(=O)N3CCCC[C@H]3C(=O)O[C@H](/C(C)=C/[C@@H]3CC[C@@H](O)[C@H](OC)C3)[C@H](C)[C@@H](O)CC1=O)[C@H](C)C[C@@H]2OC.O [TACROLIMUS],Compound NOT metabolized,Compound NOT metabolized,Compound NOT metabolized,Compound NOT metabolized,Compound NOT metabolized,Compound NOT metabolized,Compound NOT metabolized,Compound NOT metabolized,Compound NOT metabolized,Compound metabolized,Compound metabolized,Compound metabolized,Compound NOT metabolized,Compound NOT metabolized,Compound metabolized,Compound metabolized,Compound metabolized,Compound metabolized,Compound metabolized,Compound NOT metabolized

# More lines, now with the values ahead:
Bacterial Biotransformation [1],Bacterial Biotransformation [2],Bacterial Biotransformation [3],Bacterial Biotransformation [4],Bacterial Biotransformation [5],Bacterial Biotransformation [6],Bacterial Biotransformation [7],Bacterial Biotransformation [8],Bacterial Biotransformation [9],Bacterial Biotransformation [10],Bacterial Biotransformation [11],Bacterial Biotransformation [12],Bacterial Biotransformation [13],Bacterial Biotransformation [14],Bacterial Biotransformation [15],Bacterial Biotransformation [16],Bacterial Biotransformation [17],Bacterial Biotransformation [18],Bacterial Biotransformation [19],Bacterial Biotransformation [20],SMILES
Compound NOT metabolized,Compound NOT metabolized,Compound NOT metabolized,Compound NOT metabolized,Compound NOT metabolized,Compound NOT metabolized,Compound NOT metabolized,Compound NOT metabolized,Compound NOT metabolized,Compound NOT metabolized,Compound NOT metabolized,Compound metabolized,Compound metabolized,Compound metabolized,Compound metabolized,Compound metabolized,Compound NOT metabolized,Compound metabolized,Compound NOT metabolized,Compound metabolized,COc1ccc2cc([C@H](C)C(=O)O)ccc2c1 [NAPROXEN]
Compound metabolized,Compound metabolized,Compound metabolized,Compound metabolized,Compound metabolized,Compound NOT metabolized,Compound metabolized,Compound NOT metabolized,Compound metabolized,Compound NOT metabolized,Compound metabolized,Compound metabolized,Compound metabolized,Compound metabolized,Compound metabolized,Compound metabolized,Compound metabolized,Compound metabolized,Compound metabolized,Compound metabolized,COc1ccnc(C[S+]([O-])c2nc3ccc(OC(F)F)cc3[nH]2)c1OC (stereo not given) [PANTOPRAZOLE]
Compound metabolized,Compound metabolized,Compound metabolized,Compound metabolized,Compound metabolized,Compound metabolized,Compound metabolized,Compound metabolized,Compound metabolized,Compound metabolized,Compound metabolized,Compound metabolized,Compound metabolized,Compound metabolized,Compound metabolized,Compound metabolized,Compound metabolized,Compound metabolized,Compound metabolized,Compound metabolized,O=C(O)c1cc(/N=N/c2ccc(S(=O)(=O)Nc3ccccn3)cc2)ccc1O [SULFASALAZINE]
